Assay results taken from US20210228523A1, “MODULATORS OF SESTRIN-GATOR2 INTERACTION AND USES THEREOF” (Navitor Pharmaceuticals, Inc., priority 2017, published 2021).
Each block holds one molecule with its values, some of them ahead of it.

Molecular target: T1, GATOR2/Sestrin2 complexes (Homo sapiens, UniProt P58004)
T1 construct: endogenous in cells; host or cells: HEK293T cells stably expressing FLAG-WDR24 (lentiviral, pLJM60)
T1 sequence (P58004 1-480): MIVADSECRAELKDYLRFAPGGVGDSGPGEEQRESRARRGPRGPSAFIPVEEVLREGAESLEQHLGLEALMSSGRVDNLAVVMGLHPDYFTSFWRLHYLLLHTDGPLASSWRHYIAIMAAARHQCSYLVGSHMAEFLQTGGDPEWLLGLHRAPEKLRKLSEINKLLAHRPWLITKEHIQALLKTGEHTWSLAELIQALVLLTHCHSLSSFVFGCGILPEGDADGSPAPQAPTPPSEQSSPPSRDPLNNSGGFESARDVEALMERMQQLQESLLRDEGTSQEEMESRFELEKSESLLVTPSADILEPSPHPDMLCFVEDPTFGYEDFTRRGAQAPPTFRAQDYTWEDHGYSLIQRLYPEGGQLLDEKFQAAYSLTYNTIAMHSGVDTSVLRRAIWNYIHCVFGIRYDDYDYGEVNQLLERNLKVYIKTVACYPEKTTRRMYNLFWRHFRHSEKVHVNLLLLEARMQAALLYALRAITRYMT
Assay: In vitro PPI assay (Method 1; Western blot assay): Sestrin2 bound to GATOR2 after compound addition to immunoprecipitated FLAG-WDR24 complex
Type: binding
Conditions: 25 μM, % activity relative to leucine (25 μM = 100%)
Text: This screening assay measured test compound activity in vitro on GATOR2/Sestrin2 complexes purified via immunoprecipitation of stably expressed FLAG-WDR24 from HEK293T cells. HEK293T cells (293 Ts) were engineered to stably express N-terminally tagged FLAG-WDR24 via transduction by lentivirus. Lentiviruses were produced by co-transfection of the lentiviral transfer vector pLJM60 with the […] into HEK-293T cells using the XTremeGene 9 transfection reagent (Roche Diagnostics). The media was changed 24 hours post-transfection to Dulbecco's Modified Eagle's media (DMEM) supplemented with 30% Inactivated Fetal Serum. The virus-containing supernatants were collected 48 and 72 hours after transfection and passed through a 0.45 μm filter to eliminate cells. Target cells in 6-well tissue culture plates were infected in media containing 8 μg/mL polybrene and spin infections were performed by centrifugation at 2,200 rpm for 1 hour. Twenty-four hours after infection, the virus was removed and the cells selected with the appropriate antibiotic. Cells were then grown in DMEM supplemented with 10% fetal bovine serum and antibiotics.
Seventy-two hours later, cells were placed in standard RPMI media formulated with no amino acids and supplemented with 5 mM Glucose (−AA RPMI, US Biological Life Sciences) for 1 hour then subsequently lysed in lysis buffer (40 mM HEPES, 1% Triton, 10 mM sodium β-glycerophosphate, 10 mM sodium pyrophosphate, 2.5 mM MgCl2 and protease inhibitors). To isolate the FLAG-WDR24/endogenous-Sestrin2 complex, crude lysate (equivalent to 2-4 mg of total protein) in a volume of 1 ml was subjected to immunoprecipitation with 30 μl of anti-flag resin (SIGMA) for 2 hours at 4° C., washed twice in cold lysis buffer plus 0.5M NaCl and resuspended in 1 ml of cold cytosolic buffer (40 mM HEPES pH 7.4, 140 mM KCl, 10 mM NaCl, 2.5 mM MgCl2, 0.1% TritonX-100). […] After the incubation period, samples were centrifuged to pellet the FLAG-WDR24/endogenous-Sestrin2 complex bound to the anti-flag resin, the supernatant was completely removed and resin was resuspended in SDS-PAGE sample buffer and boiled for 5 minutes. Samples were then processed by SDS-PAGE and western blots were performed with anti-FLAG (SIGMA) and anti-Sestrin2 (Cell Signaling Technology) antibodies as described in L. Chantranupong, et al., Cell Reports 9:1-8 (2014).
The resulting western blots were scanned and band intensities corresponding to Sestrin2 and FLAG-WDR24 were quantified using the LI-COR® imaging platform. To determine the amount of Sestrin2 bound to GATOR2 for each condition, the band intensity for Sestrin2 was normalized to the band intensity of FLAG-WDR24. […]
72 hours later, cells were placed in standard RPMI media formulated with no amino acids and supplemented with 5 mM Glucose (−AA RPMI, USBiological Life Sciences) for 1 hour then subsequently lysed in lysis buffer (40 mM HEPES, 1% Triton, 10 mM Sodium Beta-Glycerophosphate, 10 mM Sodium Pyrophosphate, 2.5 mM MgCl2 and protease inhibitors). The Flag-WDR24/endogenous-Sestrin2 complex was isolated as follows: crude lysate (equivalent to 2-4 mg of total protein) in a volume of 1 ml was subjected to immunoprecipitation (IP) with 30 μl of anti-flag resin (SIGMA) for 2 hours at 4° C., washed twice in cold lysis buffer plus 0.5M NaCl and resuspended in 1 ml of cold cytosolic buffer (40 mM HEPES pH 7.4, 140 mM KCl, 10 mM NaCl, 2.5 mM MgCl2, 0.1% TritonX-100). Compounds were then added to each sample at a given concentration of 25 μM and incubated with rotation at 4° C. for 30 minutes. After the incubation period, samples were centrifuged to pellet the Flag-WDR24/endogenous-Sestrin2 complex bound to the anti-flag resin, the supernatant was completely removed and resin was resuspended in sodium dodecyl sulfate-polyacrylamide gel electrophoresis (SDS-PAGE) sample buffer and boiled for 5 minutes. […]

Compound: CC(C)C[C@H](NS(=O)(=O)c1ccccc1)C(=O)O [Compound I-25, (S)-4-methyl-2-(phenylsulfonamido)pentanoic Acid]
- Activity of Leucine: % Activity: C (a % activity relative to leucine of between -40 and 40%)

Compound: CC(C)C[C@](C)(N)C(=O)O [Compound I-32]
- Activity of Leucine: % Activity: A (a % activity relative to leucine of ≥40%)

Compound: CC(C)C[C@H](N)C(=O)N1CCCC1 [Compound I-154]
- Activity of Leucine: % Activity: C (a % activity relative to leucine of between -40 and 40%)

Compound: CC(C)(C)C[C@H](N)C(N)=O [Compound I-48]
- Activity of Leucine: % Activity: C (a % activity relative to leucine of between -40 and 40%)

Compound: CC(C)[C@H](O)[C@H](N)C(=O)O [Compound I-27]
- Activity of Leucine: % Activity: A (a % activity relative to leucine of ≥40%)

Compound: COCCC(N)C(=O)O (centres unmarked) [Compound I-39]
- Activity of Leucine: % Activity: C (a % activity relative to leucine of between -40 and 40%)

- Activity of Leucine: % Activity: A to C
Compound: CC(C)C[C@H](N)C(=O)NC(C)(C)C [Compound I-165]

Compound: CC(C)C[C@H](NC(=O)C(C)C)C(=O)O [Compound I-16, (S)-2-isobutyramido-4-methylpentanoic Acid]
- Activity of Leucine: % Activity: C (a % activity relative to leucine of between -40 and 40%)

Compound: CC(C)C[C@H](NS(=O)(=O)C1CCCCC1)C(=O)O [Compound I-17, (S)-2-(cyclohexanesulfonamido)-4-methylpentanoic Acid]
- Activity of Leucine: % Activity: C (a % activity relative to leucine of between -40 and 40%)

Compound: CC(C)C[C@H](N)C(=O)N1CCCCC1 [Compound I-151]
- Activity of Leucine: % Activity: C (a % activity relative to leucine of between -40 and 40%)

Compound: CC(C)C[C@H](N)C(=O)N(C)C [Compound I-149]
- Activity of Leucine: % Activity: C (a % activity relative to leucine of between -40 and 40%)

Compound: CN(C)[C@@H](CC(C)(C)C)C(N)=O [Compound I-158]
- Activity of Leucine: % Activity: C (a % activity relative to leucine of between -40 and 40%)

Compound: CC(C)C[C@H](N)C(=O)N1CCCC[C@@H]1C [Compound I-153]
- Activity of Leucine: % Activity: C (a % activity relative to leucine of between -40 and 40%)

Compound: CC(C)C[C@H](N)C(=O)NC(C)C [Compound I-166]
- Activity of Leucine: % Activity: C (a % activity relative to leucine of between -40 and 40%)

Compound: CC(C)C[C@H](N)C(=O)O [Compound I-44]
- Activity of Leucine: % Activity: A (a % activity relative to leucine of ≥40%)

Compound: CC(C)C[C@H](N)C(=O)N1CCCC[C@H]1C [Compound I-161]
- Activity of Leucine: % Activity: C (a % activity relative to leucine of between -40 and 40%)

Compound: CC(C)C[C@H](N)CC(=O)O [Compound I-34]
- Activity of Leucine: % Activity: C (a % activity relative to leucine of between -40 and 40%)

Compound: N[C@H](CCC(F)(F)F)C(=O)O [Compound I-7, (R)-2-amino-5,5,5-trifluoropentanoic Acid]
- Activity of Leucine: % Activity: B (a % activity relative to leucine of ≤−40%)

Compound: CC(C)C[C@H](NS(=O)(=O)Cc1ccccc1)C(=O)O [Compound I-18, (S)-4-methyl-2-(phenylmethylsulfonamido)pentanoic Acid]
- Activity of Leucine: % Activity: C (a % activity relative to leucine of between -40 and 40%)

Compound: CC(C)CNC(=O)[C@@H](N)CC(C)C [Compound I-160]
- Activity of Leucine: % Activity: C (a % activity relative to leucine of between -40 and 40%)

Compound: CC(C)C[C@H](N)C(=O)N(C)C1CCCC1 [Compound I-162]
- Activity of Leucine: % Activity: C (a % activity relative to leucine of between -40 and 40%)

Compound: N[C@H](CC(C(F)(F)F)C(F)(F)F)C(=O)O [Compound I-163]
- Activity of Leucine: % Activity: A (a % activity relative to leucine of ≥40%)

Compound: N[C@H](CCCC(F)(F)F)C(=O)O [Compound I-9, (R)-2-amino-6,6,6-trifluorohexanoic Acid]
- Activity of Leucine: % Activity: C (a % activity relative to leucine of between -40 and 40%)

Compound: CC(C)C[C@H](N)C(=O)N(C(C)C)C(C)C [Compound I-150]
- Activity of Leucine: % Activity: C (a % activity relative to leucine of between -40 and 40%)

Compound: CC(C)C[C@H](N)C(=O)N(CC(C)C)CC(C)C [Compound I-155]
- Activity of Leucine: % Activity: C (a % activity relative to leucine of between -40 and 40%)

Compound: N[C@@H](CCC(F)(F)F)C(=O)O [Compound I-6, (S)-2-amino-5,5,5-trifluoropentanoic Acid]
- Activity of Leucine: % Activity: C (a % activity relative to leucine of between -40 and 40%)

Compound: CC(C)CC(N)S(=O)(=O)O (centres unmarked) [Compound I-33]
- Activity of Leucine: % Activity: C (a % activity relative to leucine of between -40 and 40%)

Compound: CC(C)C[C@H](NC(=O)Cc1ccccc1)C(=O)O [Compound I-12, (S)-4-methyl-2-(2-phenylacetamido)pentanoic Acid]
- Activity of Leucine: % Activity: C (a % activity relative to leucine of between -40 and 40%)

Compound: CC(C)C[C@H](NCc1ccccc1)C(=O)O [Compound I-11, (S)-2-(benzylamino)-4-methylpentanoic Acid]
- Activity of Leucine: % Activity: C (a % activity relative to leucine of between -40 and 40%)

Compound: CN[C@@H](CC(C)(C)C)C(=O)O [Compound I-50]
- Activity of Leucine: % Activity: C (a % activity relative to leucine of between -40 and 40%)

Compound: CC(C[C@@H](N)C(=O)O)C(F)(F)F (stereo in doubt) [Compound I-146, (2R,4S)-2-amino-5,5,5-trifluoro-4-methylpentanoic Acid]
- Activity of Leucine: % Activity: A (a % activity relative to leucine of ≥40%)

Compound: CN(C)[C@@H](CC(C)(C)C)C(=O)O [Compound I-159]
- Activity of Leucine: % Activity: A (a % activity relative to leucine of ≥40%)

Compound: CN[C@@H](CC(C)C)C(=O)O.Cl [Compound I-24]
- Activity of Leucine: % Activity: A (a % activity relative to leucine of ≥40%)

Compound: CC(C)C(F)(F)[C@@H](N)C(=O)O [Compound I-47, (S)-2-amino-3,3-difluoro-4-methylpentanoic Acid]
- Activity of Leucine: % Activity: C (a % activity relative to leucine of between -40 and 40%)

Compound: CC(C)C[C@H](N)C(=O)NS(C)(=O)=O.Cl [Compound I-147, (S)-2-amino-4-methyl-N-(methylsulfonyl)pentanamide Hydrochloride]
- Activity of Leucine: % Activity: A (a % activity relative to leucine of ≥40%)

Compound: Cl.N[C@H](CCCCC(F)(F)F)C(=O)O [Compound I-3, (R)-2-amino-7,7,7-trifluoroheptanoic Acid Hydrochloride]
- Activity of Leucine: % Activity: B (a % activity relative to leucine of ≤−40%)

Compound: N[C@H](CC(F)(F)F)C(=O)O [Compound I-5, (R)-2-amino-4,4,4-trifluorobutanoic Acid]
- Activity of Leucine: % Activity: B (a % activity relative to leucine of ≤−40%)

Compound: CC(=O)N[C@@H](CC(C)C)C(=O)O [Compound I-36, (S)-2-acetamido-4-methylpentanoic Acid]
- Activity of Leucine: % Activity: B (a % activity relative to leucine of ≤−40%)
